From patent US20250000826A1, “APPLICATION OF BENZANILIDE COMPOUND IN TUMOR TREATMENT” (NANJING SHIJIANG MEDICINE TECHNOLOGY CO., LTD, priority 2021, published 2025)

What was measured:
Format in all cases: cell-based
[1] = tested on: NCI-H82 (Con) cell; test: CellTiter-Glo cell viability, control NCI-H82 cell; details: Homo sapiens; NCI-H82 transfected with empty virus vector, n=3
Procedure: (§1) The NNMT protein-overexpressing NCI-H82 cell (NCI-H82 (ov-NNMT)) was obtained by inserting the NNMT gene into NCI-H82 cell using a viral vector. The control NCI-H82 cell (NCI-H82 (Con)) was obtained by transfecting NCI-H82 cell with empty virus vector without carrying NNMT gene. The IC50 value of niclosamide on control NCI-H82 cell (NCI-H82 (Con)) and NNMT protein-overexpressing NCI-H82 cell (NCI-H82 (ov-NNMT)) was determined using Promega CellTiter-Glo kit which detected cell viability by directly measuring intracellular ATP content (n=3), the experiment result was shown in Table 4 below: […]

[2] = tested on: SF-126 (human glioblastoma multiforme cell); test: CellTiter-Glo cell viability, SF-126; details: SF-126, insensitive group, 3-4 days of culture, n=3, read-out: IC50 (μM), inhibitory effect on cell line
Procedure: (§2) Cell viability was detected using the Promega CellTiter-Glo kit, cell viability was determined by directly measuring intracellular ATP content. In the experiment, the IC50 value of niclosamide on various tumor cell lines was determined. Each tumor cell was cultured separately in relevant medium (+p/s), and was incubated for 3 h, then the gradient diluted niclosamide was added. After 3-4 days of culture, the relevant IC50 (50% inhibiting concentration) was measured (n=3). The name, source and culture conditions of each tumor cell line were as follows: Cell line NCI-H82 (ATCC, No. HTB-175) was cultured in 10% fetal bovine serum-containing RPMI1640 medium (+P/S). Cell line SF126 (JCRB. No. 1F050286) was cultured in 10% fetal bovine serum-containing EMEM medium (+P/S).

[3] = tested on: GB-1 (human glioblastoma cell); test: CellTiter-Glo cell viability, GB-1; details: GB-1, insensitive group, 3-4 days of culture, n=3, read-out: IC50 (μM), inhibitory effect on cell line
Procedure: as §2, with “GB-1 (JCRB,” for “SF126 (JCRB.”, “IF050489)” for “1F050286)”, “[…] DMEM” for “EMEM”

[4] = tested on: NCI-H82 (human small cell lung cancer cell); test: CellTiter-Glo cell viability, NCI-H82; details: NCI-H82, sensitive group, 3-4 days of culture, n=3, read-out: IC50 (μM), inhibitory effect on cell line
Procedure: as §2, with “(+P/S).” for “(+P/S). Cell line SF126 (JCRB. No. 1F050286) was cultured in 10% fetal bovine serum-containing EMEM medium (+P/S).”

[5] = tested on: CFPAC-1 (human pancreatic cancer cell); test: CellTiter-Glo cell viability, CFPAC-1; details: CFPAC-1, insensitive group, 3-4 days of culture, n=3, read-out: IC50 (μM), inhibitory effect on cell line
Procedure: as §2, with “CFPAC-1 (ATCC,” for “SF126 (JCRB.”, “CRL-1918)” for “1F050286)”, “IMDM” for “EMEM”

[6] = tested on: MDA-MB-453 (breast cancer cell); test: CellTiter-Glo cell viability, MDA-MB-453; details: Homo sapiens; MDA-MB-453, sensitive group, 3-4 days of culture, n=3; read-out: IC50 (μM), inhibitory effect on cell line
Procedure: as §2, with “MDA-MB-453 (ATCC,” for “SF126 (JCRB.”, “HTB-131)” for “1F050286)”, “Leibovitz's L-15” for “EMEM”

[7] = tested on: G-401 (human renal carcinoma Wilms cell); test: CellTiter-Glo cell viability, G-401; details: G-401, sensitive group, 3-4 days of culture, n=3, read-out: IC50 (μM), inhibitory effect on cell line
Procedure: as §2, with “G401 (ATCC,” for “SF126 (JCRB.”, “CRL-1441)” for “1F050286)”, “McCoy's 5a” for “EMEM”

[8] = tested on: 786-0 (clear cell renal cell adenocarcinoma cell); test: CellTiter-Glo cell viability, 786-0; details: Homo sapiens; 786-0, insensitive group, 3-4 days of culture, n=3; read-out: IC50 (μM), inhibitory effect on cell line
Procedure: as §2, with “786-0 (ATCC,” for “SF126 (JCRB.”, “CRL-1932)” for “1F050286)”, “RPMI1640” for “EMEM”

[9] = tested on: WSU-DLCL2 (human diffuse large B-cell lymphoma); test: CellTiter-Glo cell viability, WSU-DLCL2; details: WSUDLCL2, WSU-DLCL2, sensitive group, 3-4 days of culture, n=3, read-out: IC50 (μM), inhibitory effect on cell line
Procedure: as §2, with “WSU-DLCL2 (DSMZ,” for “SF126 (JCRB.”, “ACC-575)” for “1F050286)”, “RPMI1640” for “EMEM”

[10] = tested on: NCI-H82 (ov-NNMT) cell; test: CellTiter-Glo cell viability, NNMT protein-overexpressing NCI-H82 cell; details: Homo sapiens; NCI-H82 with NNMT gene inserted by viral vector, n=3
Procedure: as §1

[11] = tested on: SW48 (human colon adenocarcinoma cell); test: CellTiter-Glo cell viability, SW48; details: SW48, sensitive group, 3-4 days of culture, n=3, read-out: IC50 (μM), inhibitory effect on cell line
Procedure: as §2, with “SW48 (ATCC,” for “SF126 (JCRB.”, “CCL-231)” for “1F050286)”, “Leibovitz's L-15” for “EMEM”

`O=C(Nc1ccc([N+](=O)[O-])cc1Cl)c1cc(Cl)ccc1O` [Niclosamide, niclosamide] showed an IC50 [1] of 120 nM, an IC50 [2] of 16.2 µM and an IC50 [3] of 6.68 µM. It also gave an IC50 [4] of 0.13 µM, an IC50 [5] of over 50 µM and an IC50 [6] of 0.47 µM. The IC50 [7] was 0.64 µM, the IC50 [8] was over 50 µM and the IC50 [9] was 0.21 µM. The IC50 [10] was 420 nM and the IC50 [11] was 0.72 µM.
